# Patent US9540366B2, “Ring-fused heterocyclic compound” (Kyowa Hakko Kirin Co., Ltd., priority 2012, dated 2017)
# pIC50: −log10 of the molar value. Like-named read-outs stand apart in the source and are kept apart here.
# Biological target: T1, human Cav3.2 T-type Ca2+ channel (Homo sapiens, UniProt O95180)
# T1 construct: expressed in transfected cells; host or cells: KJMGER8 cells (Namalwa cell-derived cell line)
# Experiment: Inhibitory effect for intracellular calcium response via Cav3.2 T-type Ca2+ channels (FLIPR Calcium 3 Assay Kit)
# Assay type: cell-based
# [1] = human Cav3.2-expressing KJMGER8 cells (Namalwa-derived), calcium response induced by 5 mmol/L CaCl2, 3 μmol/L mibefradil as reference, read-out: IC50 for the human Cav3.2 T-type Ca2+ current
# T1 sequence (O95180 whole entry): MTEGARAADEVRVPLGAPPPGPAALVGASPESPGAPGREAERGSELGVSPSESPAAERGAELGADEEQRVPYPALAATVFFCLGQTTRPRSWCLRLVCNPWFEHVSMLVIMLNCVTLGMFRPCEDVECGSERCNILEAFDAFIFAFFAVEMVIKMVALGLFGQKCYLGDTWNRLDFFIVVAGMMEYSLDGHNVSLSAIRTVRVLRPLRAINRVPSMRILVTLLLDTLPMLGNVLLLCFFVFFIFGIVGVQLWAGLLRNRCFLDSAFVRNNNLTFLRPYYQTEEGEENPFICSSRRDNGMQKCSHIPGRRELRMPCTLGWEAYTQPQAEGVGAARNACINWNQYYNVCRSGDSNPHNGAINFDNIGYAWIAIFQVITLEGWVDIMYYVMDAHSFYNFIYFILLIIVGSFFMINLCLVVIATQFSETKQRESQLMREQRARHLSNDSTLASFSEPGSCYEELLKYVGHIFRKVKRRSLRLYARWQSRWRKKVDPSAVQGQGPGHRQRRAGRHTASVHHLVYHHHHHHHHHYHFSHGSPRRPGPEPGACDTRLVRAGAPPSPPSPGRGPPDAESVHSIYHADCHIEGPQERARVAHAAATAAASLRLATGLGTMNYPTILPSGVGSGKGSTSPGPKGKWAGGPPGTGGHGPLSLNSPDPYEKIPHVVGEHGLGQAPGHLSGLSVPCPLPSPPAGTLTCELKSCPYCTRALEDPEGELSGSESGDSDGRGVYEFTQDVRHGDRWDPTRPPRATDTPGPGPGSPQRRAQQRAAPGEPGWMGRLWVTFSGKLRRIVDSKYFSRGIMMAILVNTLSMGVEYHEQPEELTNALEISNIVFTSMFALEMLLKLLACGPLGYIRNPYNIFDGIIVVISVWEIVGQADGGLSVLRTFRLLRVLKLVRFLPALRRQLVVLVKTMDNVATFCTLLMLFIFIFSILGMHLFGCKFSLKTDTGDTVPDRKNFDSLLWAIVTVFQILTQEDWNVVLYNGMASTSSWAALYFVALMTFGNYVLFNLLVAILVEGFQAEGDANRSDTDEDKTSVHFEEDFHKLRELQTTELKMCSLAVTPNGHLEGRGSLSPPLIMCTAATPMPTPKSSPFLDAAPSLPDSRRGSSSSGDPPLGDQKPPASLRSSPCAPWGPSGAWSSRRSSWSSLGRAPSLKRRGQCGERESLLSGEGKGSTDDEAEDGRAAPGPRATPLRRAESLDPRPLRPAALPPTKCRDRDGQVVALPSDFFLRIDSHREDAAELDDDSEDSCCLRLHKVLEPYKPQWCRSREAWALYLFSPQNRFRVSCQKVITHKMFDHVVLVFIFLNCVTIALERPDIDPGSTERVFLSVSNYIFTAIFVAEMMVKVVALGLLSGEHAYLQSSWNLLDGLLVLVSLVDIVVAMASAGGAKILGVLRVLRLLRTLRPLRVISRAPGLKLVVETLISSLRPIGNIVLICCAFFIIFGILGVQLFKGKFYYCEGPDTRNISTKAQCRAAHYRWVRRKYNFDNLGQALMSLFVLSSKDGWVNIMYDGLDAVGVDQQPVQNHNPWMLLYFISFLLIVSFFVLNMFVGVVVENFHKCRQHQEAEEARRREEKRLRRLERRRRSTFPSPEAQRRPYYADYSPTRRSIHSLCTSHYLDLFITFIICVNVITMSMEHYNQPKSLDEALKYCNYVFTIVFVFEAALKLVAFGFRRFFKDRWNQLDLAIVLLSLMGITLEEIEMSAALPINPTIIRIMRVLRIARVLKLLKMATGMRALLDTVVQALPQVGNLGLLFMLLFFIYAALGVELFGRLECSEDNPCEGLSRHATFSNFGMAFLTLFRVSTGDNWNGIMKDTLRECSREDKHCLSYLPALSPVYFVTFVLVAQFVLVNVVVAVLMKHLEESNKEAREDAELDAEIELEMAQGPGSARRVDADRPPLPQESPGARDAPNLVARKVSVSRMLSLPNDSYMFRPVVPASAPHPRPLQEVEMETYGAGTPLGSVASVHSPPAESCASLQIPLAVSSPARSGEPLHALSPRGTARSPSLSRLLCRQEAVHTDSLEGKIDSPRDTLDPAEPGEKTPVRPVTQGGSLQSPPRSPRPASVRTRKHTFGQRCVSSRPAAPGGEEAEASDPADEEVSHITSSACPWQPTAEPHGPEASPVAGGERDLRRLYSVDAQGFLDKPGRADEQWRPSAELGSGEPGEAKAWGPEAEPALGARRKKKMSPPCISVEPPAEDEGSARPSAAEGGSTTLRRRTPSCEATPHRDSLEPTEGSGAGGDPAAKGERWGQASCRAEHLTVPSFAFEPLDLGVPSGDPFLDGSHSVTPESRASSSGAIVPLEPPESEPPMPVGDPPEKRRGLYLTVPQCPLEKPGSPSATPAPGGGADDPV
Structure (SMILES),pIC50 [1],pIC50
"N#Cc1cc(C(=O)NC2CC3(COC3)C2)cc2nc(C(F)(F)F)c(CC3CCC(F)(F)CC3)n12 [Compound 146, 5-Cyano-3-[(4,4-difluorocyclohexyl)methyl]-N-(2-oxaspiro[3.3]heptan-6-yl)-2-(trifluoromethyl)imidazo[1,2-a]pyridine-7-carboxamide]",≥ 7.00,
"N#Cc1cc(C(=O)N2C[C@H]3COC[C@@H](C2)C3=O)cc2nc(C(F)(F)F)c(CC3CCC(F)(F)CC3)n12 [Compound 210, 3-[(4,4-Difluorocyclohexyl)methyl]-7-[(1R,5S)-9-oxo-3-oxa-7-azabicyclo[3.3.1]nonane-7-carbonyl)-2-(trifluoromethyl)imidazo[1,2-a]pyridine-5-carbonitrile]",≥ 7.00,
"COc1ccc(Cc2c(C(F)(F)F)nc3cc(C(=O)NC4CCOCC4)cc(C)n23)cc1 [Compound 209, 3-(4-Methoxybenzyl)-5-methyl-N-(tetrahydro-2H-pyran-4-yl)-2-(trifluoromethyl)imidazo[1,2-a]pyridine-7-carboxamide]",,≥ 7.00
"N#Cc1cc(C(=O)NC2CCC2)cc2nc(C(F)(F)F)c(CC3CCC(F)(F)CC3)n12 [Compound 54, 5-Cyano-N-cyclobutyl-3-[(4,4-difluorocyclohexyl)methyl]-2-(trifluoromethyl)imidazo[1,2-a]pyridine-7-carboxamide]",,≥ 7.00
"Cc1cc(NC(=O)c2cc3nc(C(C)(C)Cl)c(S(=O)(=O)N4CC(F)(F)C4)n3cc2Cl)on1 [Compound 28, 6-Chloro-2-(2-chloropropan-2-yl)-3-(3,3-difluoroazetidin-1-ylsulfonyl)-N-(3-methylisoxazol-5-yl)imidazo[1,2-a]pyridine-7-carboxamide]",≥ 7.00,
"Cc1cc(C(=O)NC2CC3(COC3)C2)cc2nc(C(C)(F)F)c(CC3CCC(F)(F)CC3)n12 [Compound 136, 3-[(4,4-Difluorocyclohexyl)methyl]-2-(1,1-difluoroethyl)-5-methyl-N-(2-oxaspiro[3.3]heptan-6-yl)imidazo[1,2-a]pyridine-7-carboxamide]",,≥ 7.00
"CC(C)(C)NC(=O)c1cc(Cl)n2c(CC3CCC(F)(F)CC3)c(C(F)(F)F)nc2c1 [Compound 220, N-tert-Butyl-5-chloro-3-[(4,4-difluorocyclohexyl)methyl]-2-(trifluoromethyl)imidazo[1,2-a]pyridine-7-carboxamide]",,≥ 7.00
"O=C(Nc1ccccc1)c1cc2nc(C3CC3)c(CC3CCC(F)(F)CC3)n2cc1Cl [Compound 6, 6-Chloro-2-cyclopropyl-3-[(4,4-difluorocyclohexyl)methyl]-N-phenylimidazo[1,2-a]pyridine-7-carboxamide]",,≥ 7.00
"Cc1cc(C(=O)NOC2CCOCC2)cc2nc(C(F)(F)F)c(CC3CCC(F)(F)CC3)n12 [Compound 72, 3-[(4,4-Difluorocyclohexyl)methyl]-5-methyl-N-(tetrahydro-2H-pyran-4-yloxy)-2-(trifluoromethyl)imidazo[1,2-a]pyridine-7-carboxamide]",,≥ 7.00
"Cc1cc(C(=O)NC2CCOCC2)cc2nc(C(C)C)c(N(C)C3CCCCC3)n12 [Compound 34, 3-[Cyclohexyl(methyl)amino]-2-isopropyl-5-methyl-N-(tetrahydro-2H-pyran-4-yl)imidazo[1,2-a]pyridine-7-carboxamide]",≥ 7.00,
"N#Cc1cc(C(=O)NC2CCOCC2)cc2nc(C(F)(F)F)c(Cc3ccc(Cl)cc3)n12 [Compound 211, 3-(4-Chlorobenzyl)-5-cyano-N-(tetrahydro-2H-pyran-4-yl)-2-(trifluoromethyl)imidazo[1,2-a]pyridine-7-carboxamide]",,≥ 7.00
"CCOC(=O)CNC(=O)c1cc(C#N)n2c(CC3CCC(F)(F)CC3)c(C(F)(F)F)nc2c1 [Compound 139, Ethyl 2-{5-cyano-3-[(4,4-difluorocyclohexyl)methyl]-2-(trifluoromethyl)imidazo[1,2-a]pyridine-7-carboxamide}acetate]",,≥ 7.00
"CC(C)(NC(=O)c1cc(Cl)n2c(CC3CCC(F)(F)CC3)c(C(F)(F)F)nc2c1)C1CCOCC1 [Compound 81, 5-Chloro-3-[(4,4-difluorocyclohexyl)methyl]-N-[2-(tetrahydro-2H-pyran-4-yl)propan-2-yl]-2-(trifluoromethyl)imidazo[1,2-a]pyridine-7-carboxamide]",,≥ 7.00
"CC(F)(F)c1nc2cc(C(=O)NC3CCC(O)CC3)c(Cl)cn2c1CC1CCC(F)(F)CC1 (stereo not shown) [Compound 25, 6-Chloro-3-[(4,4-difluorocyclohexyl)methyl]-2-(1,1-difluoroethyl)-N-(4-hydroxycyclohexyl)imidazo[1,2-a]pyridine-7-carboxamide]",,≥ 7.00
"[2H]C([2H])([2H])OC(C)(C)CNC(=O)c1cc(C#N)n2c(Cc3ccc(Cl)cc3)c(C(C)(F)F)nc2c1 [Compound 223, 3-(4-Chlorobenzyl)-5-cyano-2-(1,1-difluoroethyl)-N-(2-methoxy-d3-2-methylpropyl)imidazo[1,2-a]pyridine-7-carboxamide]",,≥ 7.00
"CC(F)(F)c1nc2cc(C(=O)N[C@H]3C[C@@H]4CC[C@H]3O4)cc(C=O)n2c1CC1CCC(F)(F)CC1 [Compound 179, N-[(1R,2S,4S)-7-Oxabicyclo[2.2.1]heptan-2-yl]-3-[(4,4-difluorocyclohexyl)methyl]-2-(1,1-difluoroethyl)-5-formylimidazo[1,2-a]pyridine-7-carboxamide]",,≥ 7.00

Structure (SMILES),pIC50 [1],pIC50
"CC(C)(CNC(=O)c1cc2nc(C(F)(F)F)c(CC3CCC(F)(F)CC3)n2c(Cl)c1Cl)S(C)(=O)=O [Compound 216, 5,6-Dichloro-3-[(4,4-difluorocyclohexyl)methyl]-N-[2-methyl-2-(methylsulfonyl)propyl]-2-(trifluoromethyl)imidazo[1,2-a]pyridine-7-carboxamide]",,≥ 7.00
"Cc1cc(C(O)c2nc3ccccc3[nH]2)cc2nc(C(F)(F)F)c(CC3CCC(F)(F)CC3)n12 (stereo not shown) [Compound 112, (1H-Benzo[d]imidazol-2-yl){3-[(4,4-difluorocyclohexyl)methyl]-5-methyl-2-(trifluoromethyl)imidazo[1,2-a]pyridin-7-yl}methanol]",≥ 7.00,
"CC(C)(C)NC(=O)c1cc(C#N)n2c(CC3CCC(F)(F)CC3)c(C(F)(F)F)nc2c1 [Compound 198, N-tert-Butyl-5-cyano-3-[(4,4-difluorocyclohexyl)methyl]-2-(trifluoromethyl)imidazo[1,2-a]pyridine-7-carboxamide]",≥ 7.00,
"Cc1cc(CC(=O)Nc2ccccc2N)cc2nc(C(F)(F)F)c(CC3CCC(F)(F)CC3)n12 [Compound 85, N-(2-Aminophenyl)-2-{3-[(4,4-difluorocyclohexyl)methyl]-5-methyl-2-(trifluoromethyl)imidazo[1,2-a]pyridin-7-yl}acetamide]",≥ 7.00,
"N#Cc1cc(C(=O)NC2CC2)cc2nc(C(F)(F)F)c(CC3CCC(F)(F)CC3)n12 [Compound 76, 5-Cyano-N-cyclopropyl-3-[(4,4-difluorocyclohexyl)methyl]-2-(trifluoromethyl)imidazo[1,2-a]pyridine-7-carboxamide]",,≥ 7.00
"Cc1cc(C(=O)NC(C)(C)C)cc2nc(C(C)C)c(CC3CCC(F)(F)CC3)n12 [Compound 219, N-tert-Butyl-3-[(4,4-difluorocyclohexyl)methyl]-2-isopropyl-5-methylimidazo[1,2-a]pyridine-7-carboxamide]",,≥ 7.00
"Cc1cc(C(=O)NC2CCOCC2)cc2nc(C(C)(C)C)c(CC3CCC(F)(F)CC3)n12 [Compound 4, 2-tert-Butyl-3-[(4,4-difluorocyclohexyl)methyl]-5-methyl-N-(tetrahydro-2H-pyran-4-yl)imidazo[1,2-a]pyridine-7-carboxamide]",,≥ 7.00
"O=C(NC1CCOCC1)c1cc(CF)n2c(CC3CCC(F)(F)CC3)c(C(F)(F)F)nc2c1 [Compound 47, 3-[(4,4-Difluorocyclohexyl)methyl]-5-(fluoromethyl)-N-(tetrahydro-2H-pyran-4-yl)-2-(trifluoromethyl)imidazo[1,2-a]pyridine-7-carboxamide]",,≥ 7.00
"CCCCc1c(C(C)C)nc2cc(C(=O)Nc3ccccc3)ccn12 [Compound 144, 3-Butyl-2-isopropyl-N-phenylimidazo[1,2-a]pyridine-7-carboxamide]",,≥ 7.00
"CC(F)(F)c1nc2cc(C(=O)NC3CC4(COC4)C3)c(Cl)cn2c1CC1CCC(F)(F)CC1 [Compound 147, 6-Chloro-3-[(4,4-difluorocyclohexyl)methyl]-2-(1,1-difluoroethyl)-N-(2-oxaspiro[3.3]heptan-6-yl)imidazo[1,2-a]pyridine-7-carboxamide]",,≥ 7.00
"N#Cc1cc(C(=O)NC23CCN(CC2)C3)cc2nc(C(F)(F)F)c(CC3CCC(F)(F)CC3)n12 [Compound 188, N-(1-Azabicyclo[2.2.1]heptan-4-yl)-5-cyano-3-[(4,4-difluorocyclohexyl)methyl]-2-(trifluoromethyl)imidazo[1,2-a]pyridine-7-carboxamide]",,≥ 7.00
"O=C(NCCN(CCO)CCO)c1cc(Cl)n2c(CC3CCC(F)(F)CC3)c(C(F)(F)F)nc2c1 [Compound 109, N-{2-[Bis(2-hydroxyethyl)amino]ethyl}-5-chloro-3-[(4,4-difluorocyclohexyl)methyl]-2-(trifluoromethyl)imidazo[1,2-a]pyridine-7-carboxamide]",≥ 7.00,
"CCOC(=O)C1(NC(=O)c2cc(Cl)n3c(CC4CCC(F)(F)CC4)c(C(F)(F)F)nc3c2)CC1 [Compound 135, Ethyl 1-{5-chloro-3-[(4,4-difluorocyclohexyl)methyl]-2-(trifluoromethyl)imidazo[1,2-a]pyridine-7-carboxamide}cyclopropanecarboxylate]",,≥ 7.00
"O=C(NCc1cccc(O)c1)c1cc(Cl)n2c(CC3CCC(F)(F)CC3)c(C(F)(F)F)nc2c1 [Compound 103, 5-Chloro-3-[(4,4-difluorocyclohexyl)methyl]-N-(3-hydroxybenzyl)-2-(trifluoromethyl)imidazo[1,2-a]pyridine-7-carboxamide]",≥ 7.00,
"CCOC(=O)C(=O)CNC(=O)c1cc(C)n2c(CC3CCC(F)(F)CC3)c(C(F)(F)F)nc2c1 [Compound 124, Ethyl 3-{3-[(4,4-difluorocyclohexyl)methyl]-5-methyl-2-(trifluoromethyl)imidazo[1,2-a]pyridine-7-carboxamide}-2-oxopropanoate]",,≥ 7.00
